In US11401234B2, “Deuterated compounds and uses thereof” (priority 2012, dated 2022):
Several values for one entry are separate records, joined by “and”; a condition that tells them apart may be missing. Equal entries are not always repeated.

Legend:
22Rv1 prostate tumours = assay: Tumour oxygenation (pO2) by Oxylite oxygen electrode probe in xenografts; assay type: in vivo, SCID mice
Protocol: • 22Rv1 cells grow as a solid tumour on the backs of SCID mice. • Tumour oxygenation was measured over 28 days in vehicle and bicalutamide (2 mg/kg/day) treated mice (see Table 3 above). • Bicalutamide caused a drop in tumour oxygenation (as shown in FIG. 10); from ˜15.3 mmHg (2% oxygen) to 2.0 mmHg (0.3% oxygen) at day 7 and to 0.5 mmHg (0.1% oxygen) at day 14. […] However, during the subsequent week (probably related to tumour size) the median oxygen levels […] to about 3 mmHg (0.4% oxygen) and do indicate recovery.

22Rv1 xenograft tumours = assay: 22Rv1 xenograft tumour growth (calliper tumour volumes); assay type: in vivo, SCID mice; settings: 2 mg/kg/day oral gavage
From the text: (ii) Effect of Bicalutamide on Blood Vessels in 22Rv1 Tumour Xenografts • Dorsal skin folds were secured using window chambers onto the backs of male SCID mice (>8 weeks). […] Tumour volume was normalised to day 6 (ie pre-prodrug addition).

LNCaP xenograft tumours = assay: LNCaP xenograft tumour growth (calliper tumour volumes); assay type: in vivo, SCID mice
[1] = test system: Human T cell leukaemia cells (Jurkat); assay: Inhibition of cell proliferation in air or 1% oxygen (Coulter Counter relative cell number); assay type: cell-based; settings: 4 days, range of concentrations

In the case of `CC(O)(CS(=O)(=O)c1ccc(F)cc1)C(=O)Nc1ccc(C#N)c(C(F)(F)F)c1` (stereo not drawn) [Bicalutamide], the “Mean pO2 ± SD” value (22Rv1 prostate tumours; day 0 (before commencement of treatment), 2 mg/kg/day oral gavage group, 2 mg/kg/day) is reported as 15.277 ± 11.254 mmHg, the tumour oxygenation (22Rv1 prostate tumours; day 0, 2 mg/kg/day group) is reported as 2 % oxygen and the tumour oxygenation (22Rv1 prostate tumours; day 7, 2 mg/kg/day) is reported as 0.3 % oxygen. For the same compound, the “Mean pO2 ± SD” value (22Rv1 prostate tumours; day 7 of treatment, 2 mg/kg/day oral gavage, 2 mg/kg/day) was 2.0 mmHg and 1.996 ± 1.989 mmHg, the tumour oxygenation (22Rv1 prostate tumours; day 14, 2 mg/kg/day) was 0.1 % oxygen and the “Mean pO2 ± SD” value (22Rv1 prostate tumours; day 14 of treatment, 2 mg/kg/day oral gavage, 2 mg/kg/day) was 0.5 mmHg and 0.486 ± 0.107 mmHg. The “Mean pO2 ± SD” value (22Rv1 prostate tumours; day 21 of treatment, 2 mg/kg/day oral gavage) was 1.291 ± 0.291 mmHg, the “Mean pO2 ± SD” value (22Rv1 prostate tumours; day 28 of treatment, 2 mg/kg/day oral gavage) was 11.905 ± 0.861 mmHg and the “time to reach four times the volume at the start of treatment” value (22Rv1 xenograft tumours) was 18.5 ± 0.8 days. The Growth Delay (22Rv1 xenograft tumours; versus vehicle, time to four times start volume) was 4.5 days, the “Time to 2x start volume” value (LNCaP xenograft tumours; bicalutamide 2 mg/kg/day oral 28 days, OCT1002 50 mg/kg i.p. single dose day 7) was 16.2 ± 1.94 days and the “Growth Delay” value (LNCaP xenograft tumours; versus vehicle, time to reach twice the treatment size) was 5.1 days and 5 ± 3.82 days.

In the case of `[2H]C([2H])([2H])N(CCNc1ccc(NCCN(C([2H])([2H])[2H])C([2H])([2H])[2H])c2c1C(=O)c1c(O)ccc(O)c1C2=O)C([2H])([2H])[2H]` [OCT1001, 1,4-bis-{[2-(deuterated-d6-dimethylamino)ethyl]amino)-5,8-dihydroxy-anthracene-9,10-dione], the “loss of intracellular fluorescence attributable to metabolite, compared with AQ4” value (A549 cells; after 24 h post exposure recovery in drug free medium, normal oxygenation) is reported as “reduced loss” and the “cellular accumulation of intracellular fluorescence attributable to metabolite, compared with AQ4” value (A549 cells; after 4 day prodrug exposure under 1% oxygen) is reported as “reduced cellular accumulation”.

In the case of `COc1cc([C@@H]2c3cc4c(cc3[C@@H](O[C@@H]3O[C@@H]5CO[C@@H](C)O[C@H]5[C@H](O)[C@H]3O)[C@H]3COC(=O)[C@H]23)OCO4)cc(OC)c1O` [VP-16], the “inhibition of cell proliferation (cytostatic activity, relative cell number)” value [1] is reported as “hypoxia does not modify the cytostatic action”.
